From PubChem BioAssay (NCI)
Values joined by “and” are separate entries in the source; they are usually repeats but may differ in a detail not shown here. Identical values can stand only once.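 The compound was tested at five concentrations on cells cultured in 96-well plates, with a 48-hour exposure period. Here, GI50 denotes the concentration required for 50% inhibition of growth. The concentration for full growth arrest is given as TGI.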

Experiments:
Assay in all cases: NCI-60 cell line screen, 48 h
HOP-62 NSCLC = system: HOP-62 NSCLC
TK-10 renal = system: TK-10 renal
IGROV1 ovarian = system: IGROV1 ovarian
OVCAR-5 ovarian = system: OVCAR-5 ovarian
M14 melanoma = system: M14 melanoma
HCT-15 colon = system: HCT-15 colon
HOP-92 NSCLC = system: HOP-92 NSCLC
BT-549 breast = system: BT-549 breast
ACHN renal = system: ACHN renal
OVCAR-3 ovarian = system: OVCAR-3 ovarian

Row | Structure (SMILES) | TGI (HOP-62 NSCLC) | TGI (TK-10 renal) | TGI (IGROV1 ovarian) [µM] | TGI (OVCAR-5 ovarian) | TGI (M14 melanoma) | TGI (HCT-15 colon) | TGI (HOP-92 NSCLC) | TGI (BT-549 breast) [µM] | TGI (ACHN renal) | TGI (OVCAR-3 ovarian) | GI50 (TK-10 renal) [µM] | GI50 (OVCAR-5 ovarian) [µM] | GI50 (HCT-15 colon) [µM] | GI50 (HOP-92 NSCLC) [µM] | GI50 (HOP-62 NSCLC) [µM] | GI50 (IGROV1 ovarian) [µM] | GI50 (M14 melanoma) [µM] | GI50 (ACHN renal) [µM]
1 | COc1ccccc1[C@@H]1CCC2CC[C@@H](c3ccccc3OC)[N+]21Cc1ccccc1 (stereo partly specified) | 13.3 µM | 20.3 µM | 5.7 | 12.9 µM | 12 µM | 15.2 µM | 4.06 µM | 7.63 | 12.6 µM | 10.7 µM | – | – | – | – | – | – | – | –
2 | Cc1cc(N)c2cc(NC(=O)Nc3ccc4nc(C)cc(N)c4c3)ccc2n1 | > 100 µM | > 100 µM | > 100 | > 100 µM | > 100 µM | > 100 µM | > 100 µM | > 100 | > 100 µM | > 100 µM | – | – | – | – | – | – | – | –
3 | NC(CS)C(=O)NCCNc1ccc(NCCNC(=O)C(N)CS)c2c1C(=O)c1c(O)ccc(O)c1C2=O (stereo unspecified) | 0.03 µM and 0.0483 µM | 3.58 µM and 0.49 µM | 1.47 | 1.58 µM and 0.718 µM | 1.28 µM and 1.1 µM | 0.864 µM and 0.584 µM | 0.195 µM and 1.03 µM | 1.42 | 0.123 µM and 0.104 µM | 1.76 µM and 1.58 µM | 0.08 | 0.0756 | 0.0384 | 0.0416 | – | – | – | –
4 | CC1=C(C(=O)NCCCN(CCO)CCO)CC(C(=O)NCCCN(CCO)CCO)=C(C)N1 | > 100 µM | > 100 µM | > 100 | > 100 µM | > 100 µM | > 100 µM | > 100 µM | > 100 | > 100 µM | > 100 µM | – | – | – | – | – | – | – | –
5 | O=C1C=CC(=O)[C@H]2C3C=CC(C4C3C3(Cl)C(Cl)=C(Cl)[C@]4(Cl)C3(Cl)Cl)[C@@H]12 (stereo partly specified) | 31.1 µM | 30.5 µM | 18.4 | 19.7 µM | 16 µM | 16.6 µM | 7.69 µM | 19.2 | 20.9 µM | 8.98 µM | – | – | – | – | – | – | – | –
6 | O=c1cc(NNc2cccc(F)c2)[nH]c(=S)[nH]1 | > 100 µM | > 100 µM | > 100 | > 100 µM | > 100 µM | > 100 µM | 99.5 µM | > 100 | > 100 µM | > 100 µM | – | – | – | – | – | – | – | –
7 | CCOC(=O)[C@@]12NN=N[C@@H]1[C@H]1CO[C@H](c3ccccc3)N1C2=O | 30.6 µM | 30.5 µM | 20.3 | 31.8 µM | 33 µM | 32.9 µM | 8.58 µM | 25.9 | 28.2 µM | 24.5 µM | – | – | – | – | – | – | – | –
8 | CCOC(=O)C(NC(=O)c1ccccc1)(Nc1ccc(S(=O)(=O)Nc2ccc(OC)nn2)cc1)C(F)(F)F (stereo unspecified) | > 100 µM | > 100 µM | > 100 | > 100 µM | > 100 µM | > 100 µM | > 100 µM | > 100 | > 100 µM | > 100 µM | – | – | – | – | – | – | – | –
9 | O=C(c1cccnc1)N1N=C(c2ccc3c(c2)OCO3)CC1(O)c1cc(F)c(Cl)cc1Cl (stereo unspecified) | 48.7 µM | > 100 µM | 34.1 | 49.4 µM | > 100 µM | 42.5 µM | 68.9 µM | 47.9 | 38.9 µM | 26.3 µM | – | – | – | – | – | – | – | –
10 | COc1cccc(/C=N/NC(=O)CN(C)C)c1O | > 100 µM | > 100 µM | > 100 | > 100 µM | > 100 µM | > 100 µM | > 100 µM | > 100 | > 100 µM | > 100 µM | – | – | – | – | – | – | – | –
11 | CCOC(=O)CCC(C(=O)OCC)n1nnc2ccc(Nc3c(C)[n+]([O-])c4cc(F)c(OCC)cc4[n+]3[O-])cc21 (stereo unspecified) | > 100 µM | > 100 µM | > 100 | > 100 µM | > 100 µM | > 100 µM | > 100 µM | > 100 | > 100 µM | 67.4 µM | – | – | – | – | – | – | – | –
12 | CN(C)C1(c2cc3ccccc3s2)CCCCC1 | > 100 µM | > 100 µM | > 100 | > 100 µM | 35.7 µM | > 100 µM | 63.6 µM | > 100 | > 100 µM | > 100 µM | – | – | – | – | – | – | – | –
13 | COC(=O)[C@@H](NC(=O)c1ccc(CNC(=O)/C(C)=C/c2ccccc2)cc1)C(C)C | > 100 µM | > 100 µM | > 100 | > 100 µM | > 100 µM | > 100 µM | > 100 µM | > 100 | > 100 µM | > 100 µM | – | – | – | – | – | – | – | –
14 | O=C(NCCCc1cn[nH]c(=O)n1)c1cccc2nc3ccccc3nc12 | > 100 µM | > 100 µM | > 100 | > 100 µM | > 100 µM | > 100 µM | > 100 µM | > 100 | > 100 µM | > 100 µM | – | – | – | – | – | – | – | –
15 | Clc1ccc(Nc2nnc(CNc3ccc(-c4nnc(Nc5ccc(Cl)cc5)o4)cc3)o2)cc1 | 35.1 µM | 28.9 µM | 30.4 | 40.7 µM | 43.2 µM | 35.4 µM | 48.7 µM | 38.6 | 43.6 µM | 23.9 µM | – | – | – | – | – | – | – | –
16 | Nc1nc(N)c2nc(CNc3ccc(C(=O)NC(CCNC(=O)c4ccccc4C(=O)O)C(=O)O)cc3)cnc2n1 (stereo unspecified) | > 100 µM | > 100 µM | > 100 | > 100 µM | > 100 µM | > 100 µM | > 100 µM | > 100 | > 100 µM | > 100 µM | – | 0.0863 | 0.0072 | > 100 | 0.0635 | 0.0358 | 0.0737 | 0.0451
